B1: IFN-γ: interferon-γ acquired from Sigma Aldrich, enhances inflammatory stimulation by LPS (protein, UniProt P01579 24-161, looked up)
Interferon gamma: QDPYVKEAENLKKYFNAGHSDVADNGTLFLGILKNWKEESDRKIMQSQIVSFYFKLFKNFKDDQSIQKSVETIKEDMNVKFFNSNKKKRDDFEKLTNYSVTDLNVQRKAIHELIQVMAELSPAAKTGKRKRSQMLFRG

What was measured:
Type in all cases: cell-based, human
THP-1 cells [1] = experiment: Viability of THP-1 cells treated with glycitein, optionally with LPS and IFN-γ (cell counting kit); settings: 24 hours
Method: (§1) THP-1 cells (acquired from Korean Cell Line Bank) were seeded onto a 96-well plate, with 3×10^4 cells per well, and cultured in an RPMI-1640 medium (acquired from Lonza) containing 10% (v/v) FBS, 100 U/mL penicillin and 100 μg/mL streptomycin under the condition of 37° C. and 5% CO2 for 24 hours. […] After treating with a cell counting kit reagent, with 1/10 the volume of each well, and culturing for 2 hours, O.D. value was measured using SpectraMax.

TNF-α [2] = experiment: Production of TNF-α in THP-1 cells treated with glycitein and stimulants (TNF-α ELISA kit); settings: THP-1 cells, 0, 0.1, 1 and 10 μM glycitein, then 1 μg/mL LPS and 500 UNITs IFN-γ, FIG. 9
Method: THP-1 cells (acquired from Korean Cell Line Bank) were seeded onto a 6-well plate, with 5×10^5 cells per well, and treated with 0, 0.1, 1 and 10 μM glycitein. […] After culturing for 24 hours, the culture medium was centrifuged at 1000 rpm for 3 minutes and the supernatant was taken. The concentration of TNF-α in the culture medium was determined using a TNF-α ELISA kit.

inflammatory cytokines = experiment: Production of inflammatory cytokines in THP-1 cells treated with glycitein and stimulants (cytokine array kit); settings: 10 μM glycitein, then 1 μg/mL LPS and 500 UNITs IFN-γ, FIG. 10
Method: THP-1 cells (acquired from Korean Cell Line Bank) were seeded onto a 6-well plate, with 5×10^5 cells per well, and treated with 10 μM glycitein. […] The cells untreated or treated only with the stimulant were used as a control group. The culture medium was centrifuged at 1000 rpm for 3 minutes and the supernatant was taken. The inflammatory cytokines included in the cell culture medium were identified using a cytokine array kit (R&D Systems).

NHF cells = experiment: Viability of NHF cells treated with glycitein and stimulants (cell counting kit); settings: 0.1-10 μM glycitein together with 1 μg/mL LPS and 500 UNITs IFN-γ, 24 hours, FIG. 11
Method: as §1, with “NHF” for “THP-1”, “Lonza)” for “Korean Cell Line Bank)”, “1×10^4” for “3×10^4”, “a DMEM” for “an RPMI-1640”, “hours, then” for “hours,”

MMP-1 = experiment: Production of MMP-1 in NHF cells treated with glycitein and stimulated THP-1 cell culture medium (MMP-1 assay kit); settings: NHF cells pretreated with 10 μM glycitein, then stimulated THP-1 culture medium, FIG. 12
Method: THP-1 cells (acquired from Korean Cell Line Bank) were seeded onto a 6-well plate, with 5×10^5 cells per well, and cultured in an RPMI-1640 medium (acquired from Lonza) containing 10% (v/v) FBS, 100 U/mL penicillin and 100 μg/mL streptomycin under the condition of 37° C. and 5% CO2 for 24 hours. Also, NHF cells (acquired from Lonza) were seeded onto a 24-well plate, with 3×10^4 cells per well, and cultured in a DMEM medium (acquired from Lonza) containing 10% (v/v) FBS, 100 U/mL penicillin and 100 μg/mL streptomycin under the condition of 37° C. and 5% CO2 for 24 hours. […] The THP-1 cell culture medium was centrifuged at 1000 rpm for 3 minutes and the supernatant was taken. The NHF cells were treated with the supernatant. NHF cells treated with serum-free DMEM (acquired from Lonza) were used as an untreated group. After culturing for 24 hours, the concentration of MMP-1 in the NHF cells was measured using an MMP-1 assay kit and the ratio of the concentration of MMP-1 relative to the untreated group was calculated.

TNF-α [3] = experiment: Production of TNF-α in THP-1 cells treated with LPS and/or IFN-γ (TNF-α ELISA kit); settings: IFN-γ alone, all concentrations (250, 500, 1000 UNITs), FIG. 1
Method: THP-1 cells (acquired from Korean Cell Line Bank) were seeded onto a 6-well plate, with 5×10^5 cells per well, and cultured in an RPMI-1640 medium (acquired from Lonza) containing 10% (v/v) FBS, 100 U/mL penicillin and 100 μg/mL streptomycin under the condition of 37° C. and 5% CO2 for 24 hours. Subsequently, the cells were cultured for 24 hours after treating with three kinds of LPS derived from Escherichia coli (E. coli O111:B4, E. coli O55:B5 and E. coli EH100) and two kinds of LPS derived from Salmonella [Salmonella typhosa (S. typhosa) and Salmonella typhimurium (S. typhimurium), acquired from Sigma Aldrich], at concentrations of 0, 0.1 and 1 μg/mL, and with 0, 250, 500 and 1000 UNITs of INF-γ (acquired from Sigma Aldrich). Subsequently, the culture medium was centrifuged at 1000 rpm for 3 minutes and the supernatant was taken and then the concentration of TNF-α in the supernatant was determined using a TNF-α ELISA kit.

THP-1 cells [4] = experiment: Viability of THP-1 cells treated with LPS and IFN-γ (cell counting kit)
Method: as §1, with “hours, cell viability was determined by measuring” for “hours,”, “value” for “value was measured”

Molecule | cytotoxicity (THP-1 cells [1]; glycitein alone, 10 μM or lower, FIG. 7) | cytotoxicity (THP-1 cells [1]; glycitein together with 1 μg/mL LPS and 500 UNITs IFN-γ, FIG. 8) | concentration of TNF-α (TNF-α [2]) | amount of the inflammatory cytokines produced upon treatment with the stimulant (inflammatory cytokines) | cytotoxicity (NHF cells) | production of MMP-1 (MMP-1) | effect on the production of TNF-α (TNF-α [3]) | cytotoxicity (THP-1 cells [4])
COc1cc2c(=O)c(-c3ccc(O)cc3)coc2cc1O [glycitein] | no cytotoxicity | no cytotoxicity | lower as the concentration of glycitein increased | decreased | no cytotoxicity | decreased production of MMP-1 | – | –
B1 | – | – | – | – | – | – | no effect | no cytotoxicity

— patent US9051596B2, “Method for screening inhibitory substances to inflammatory skin-aging” (AMOREPACIFIC CORPORATION, priority 2011, dated 2015)
